Source: patent EP0369733A2, “Fluorescent indicator dyes for alkali metal cations, their preparation and use” (THE REGENTS OF THE UNIVERSITY OF CALIFORNIA, priority 1988, dated 1990)

Experiments:
[1] = Cation titration followed by absorbance or fluorescence excitation spectra: Mg²⁺ binding; conditions: 0.1 M tetramethylammonium chloride, 1-5 mM tris(hydroxymethyl)aminomethane, high pH, read-out: Dissociation constants (Kd) in mM for Mg²⁺
Method: (§1) • Footnote a: For molecular structures, see Fig. 1. • Footnote b: Except where otherwise noted, these dissociation constants were measured with the chelator dissolved in 0.1 M tetramethylammonium chloride, at a pH held high enough with 1-5 mM tris(hydroxymethyl)aminomethane for protonation to be insignificant. The absorbance spectrum, or the fluorescence excitation spectrum for those compounds (2GG, 2NN, 2OO, 2PP, 3NN) with acronyms was measured as a function of the concentration of cation added as a solid or concentrated aqueous solution of the halide salt. No correction has been made for the changing ionic strength of the solution, which started from 0.1 M and increased, but the absorbances and fluorescence amplitudes were applied for dilution of the dye and any slight quenching due to high concentrations of Cl⁻. • Footnote c: These protonation constants were determined in 0.1 M tetramethylammonium chloride, 10 mM tris(hydroxymethyl)aminomethane, titrated with 5 M H₃PO₄ to successively lower pH values measured with a Radiometer PHM84 meter. […] The first number is the wavelength in nanometers, followed in parentheses by 10⁻³ x the corresponding extinction coefficient, M⁻¹cm⁻¹. […] Emission maxima are not corrected for the spectral sensitivity of the emission detection. Quantum efficiencies were measured (13) by comparing the integral of the corrected emission spectrum with the corresponding integral for a solution of quinine bisulfate in 1 N H₂SO₄ of matched absorbance at the excitation wavelength.
(§2) Affinities for other cations were usually measured by titrating aqueous solutions of the indicator with metal chlorides added either as solid or from concentrated stock solutions, taking care to minimize dilution and correct for it. A convenient way to mass-produce premeasured micromole to millimole aliquots of solid NaCl or KCl was to pipet saline solutions into polypropylene micro test tubes and evaporate the water in an oven. The standard ionic background was again 100 mM tetramethylammonium chloride, usually with a few mM of tris(hydroxymethyl)-aminomethane base to hold the pH high enough (pH 8-9) to insure that protonation was negligible. This convenient titration procedure had the slight disadvantage that the ionic strength was not constant, especially when large quantities of a salt had to be added due to weak affinities. […] When constant ionic strength was desired, the chelator was made up at identical concentrations in matched solutions of NaCl, KCl, or tetramethylammonium chloride, then these stocks were mixed in the desired proportions.

[2] = Cation titration followed by absorbance or fluorescence excitation spectra: Li⁺ binding; conditions: for Kd: 0.1 M tetramethylammonium chloride, 1-5 mM tris(hydroxymethyl)aminomethane, high pH, read-out: Dissociation constants (Kd) in mM for Li⁺
Method: as §1
as §2, with “proportions. All measurements were made at room temperature (22°, ±2° C).” for “proportions.”

[3] = Fluorescence excitation/emission spectra and quantum efficiency; format: physicochemical; conditions: for Quantum efficiency -Na⁺ / Quantum efficiency +Na⁺: relative to quinine bisulfate in 1 N H₂SO₄ (0.55); for Quantum efficiency +Na⁺: saturating Na⁺
Method: as §1
UV absorbance spectra were recorded initially on a Cary 210 and later on a Perkin-Elmer Lambda Array 3840 spectrophotometer. Fluorescence excitation and emission spectra and quantum efficiencies were measured on a Spex Fluorolog 111 as described previously (13).

[4] = physchem; conditions: 126 mm kcl, 14 mm nacl
Method: The lowest curve ([Na⁺] = 0) was obtained with 5 µM SBFI in 130 mM KCl, 10 mM MOPS, KOH to pH 7.05, approximately 135 mM total K⁺. The highest curve ([Na⁺] = 135 mM) was analogously recorded from 5 µM SBFI in 130 mM NaCl, 10 mM MOPS, NaOH to pH 7.05. The intermediate curves from 1.35 to 94.5 mM Na⁺ were obtained by successively 1/100, 1/99, 3/98, 1/19, 1/9, 1/4, and 1/2 of the K⁺-rich SBFI solution by the SBFI in Na medium. The excitation bandwidth was 1.85 nm; emission was collected at 500 nm with 9.3 nm bandwidth. […] The lowest curve was obtained in 130 mM NaCl, 10 mM MOPS, NaOH to pH 7.05. The highest curve was in 130 mM KCl, 10 mM MOPS, KOH to pH 7.05. The intermediate curves with 13.5 to 112.5 mM K⁺ were obtained by iteratively replacing 1/10, 1/9, 1/6, 1/4, 1/3, and 1/2 of the low K⁺ medium by the 135 mM KCl solution of PBFP.
Proton dissociation constants of the chelators were measured by spectrophotometry or spectrofluorometry of buffered solutions, containing either 100 mM tetramethylammonium chloride as inert supporting electrolyte, or 121.5 mM K⁺, 13.5 mM Na⁺, and 1 mM Mg²⁺ to simulate the cation environment of vertebrate cytoplasm (14). […] When the chelators contained two protonatable nitrogens, the curve of absorbance or fluorescence versus pH was analyzed by computerized least-squares fitting to the equations for two arbitrary proton equilibria (15), with the added assumption that the two protonations each caused the same change in extinction coefficient or fluorescence. This assumption was based on the presence of two identical chromophores in each chelator and produced good fits to the experimental data.

[5] = Proton dissociation constants in 0.1 M tetramethylammonium chloride; conditions: 10 mM Tris titrated with 5 M H₃PO₄
Method: • Footnote a: For molecular structures, see Fig. 1. • Footnote b: Except where otherwise noted, these dissociation constants were measured with the chelator dissolved in 0.1 M tetramethylammonium chloride, at a pH held high enough with 1-5 mM tris(hydroxymethyl)aminomethane for protonation to be insignificant. […] No correction has been made for the changing ionic strength of the solution, which started from 0.1 M and increased, but the absorbances and fluorescence amplitudes were applied for dilution of the dye and any slight quenching due to high concentrations of Cl⁻. • Footnote c: These protonation constants were determined in 0.1 M tetramethylammonium chloride, 10 mM tris(hydroxymethyl)aminomethane, titrated with 5 M H₃PO₄ to successively lower pH values measured with a Radiometer PHM84 meter.
Proton dissociation constants of the chelators were measured by spectrophotometry or spectrofluorometry of buffered solutions, containing either 100 mM tetramethylammonium chloride as inert supporting electrolyte, or 121.5 mM K⁺, 13.5 mM Na⁺, and 1 mM Mg²⁺ to simulate the cation environment of vertebrate cytoplasm (14). Traces of UV-absorbing impurities in the tetramethylammonium chloride (Alfa Inorganics) were removed by filtration through acid-­washed activated charcoal. The concentration of the tetramethylammonium chloride was then measured by chloride titration, and the absence of significant Na⁺ contamination was verified with a sodium-selective glass electrode (Microelectrodes Inc.). When the chelators contained two protonatable nitrogens, the curve of absorbance or fluorescence versus pH was analyzed by computerized least-squares fitting to the equations for two arbitrary proton equilibria (15), with the added assumption that the two protonations each caused the same change in extinction coefficient or fluorescence.

With COc1cc2cc(-c3ccc(C(=O)O)cc3C(=O)O)oc2cc1N1CCOCCOCCN(c2cc3oc(-c4ccc(C(=O)O)cc4C(=O)O)cc3cc2OC)CCOCC1 [Compound 2PP, N,N-bis-(2-(2,4-dicarboxyphenyl)-5-methoxybenzofuran-6-yl)-diaza[15]-crown-5] the Kd ([1]; listed as 2PP (SBFI)) was 60 mM, the Kd ([1]; listed as SBFI) was roughly 60 mM and the “Li⁺ affinity” value [2] was 15 M⁻¹. The Kd ([2]; listed as 2PP (SBFI)) was 68 mM, the Kd ([2]; listed as SBFI) was 67 mM and the “Emission maxima -Na⁺” value ([3]; 100 mM tetramethylammonium chloride, no Na⁺, not corrected for detector sensitivity) was 551 nanometers. For the same compound, the “emission peak with Ca²⁺” value ([3]; Ca²⁺ bound, large hypsochromic shift) was 432 nm, the “excitation peak wavelength without Na⁺” value ([3]; Na⁺-K⁺ mixtures, sum 135 mM, K⁺ only) was 344 nm and the “excitation peak wavelength with Na⁺” value ([3]; Na⁺-K⁺ mixtures, sum 135 mM, Na⁺ bound) was 336 nm. The “Quantum efficiency -Na⁺” value ([3]; no Na⁺, listed as 2PP (SBFI)) was “.045”, the “Quantum efficiency -Na⁺” value ([3]; no Na⁺, listed as SBFI) was 0.045 and the “Emission maxima +Na⁺” value ([3]; saturating NaCl, not corrected for detector sensitivity) was 525 nanometers. The “Quantum efficiency +Na⁺” value ([3]; listed as 2PP (SBFI)) was “.063”, the “Quantum efficiency +Na⁺” value ([3]; listed as SBFI) was 0.08 and the pKa [4] was 6.09. It also gave a pKa ([5]; first value printed (highest pKa, 1st proton), listed as 2PP (SBFI)) of 5.89 and a pKa ([5]; second value (second protonation)) of 5.19.
